Patent US20060147558A1, “Remedies” (priority 2000, published 2006)

Key:
[1] = system: HGF production of MRC-5 cells; assay: enhancing activity for HGF production: MRC-5 cells cultured 24 h with sample, HGF in medium by ELISA; assay type: cell-based, human; settings: for Amount of HGF Produced: control = 100%
Experimental: (1) The enhancing activity for HGF production of each of the bamboo blade extract (sample (1)) prepared in item (1) of Example 1, and the lower layer fraction (sample (2)) and the upper layer fraction (sample (3)) prepared in item (2) of Example 1 was assayed. Five-hundred microliters each of MRC-5 cells (CCL 171: manufactured by DAINIPPON PHARMACEUTICAL CO., LTD., code. 02-021) suspended in a DME medium containing 10% fetal bovine serum so as to have a concentration of 1×10^5 cells/ml were added into each well of a 48-well cell culture plate. The cells were cultured at 37° C. for 24 hours in the presence of 5% CO2, and then the medium was exchanged for a DME medium containing 1% fetal bovine serum. Thereafter, the sample was added to the medium, and the cells were further cultured for 24 hours. The medium was then collected, and by using Quantikine Human Hepatocyte Growth Factor (HGF) ELISA Kit (manufactured by Funakoshi, Code. RS-0641-00), the amount of HGF in the medium was determined. The amount of HGF produced was expressed, assuming that the value of the negative control is 100%. […] As the negative control, distilled water was added in the same volume as that of the sample. The amount of HGF produced was expressed, assuming that the value of the negative control is 100%. The results for the sample (1) are shown in Table 1, and the results for the sample (2) and the sample (3) are shown in Table 2. Each experiment was carried out twice, and its average value was taken. […] From the above, it was shown that the bamboo blade extract has an enhancing activity for HGF production.

[2] = system: NGF production of L-M cells; assay: enhancing activity for NGF production: L-M cells cultured 20 h with sample, NGF in medium by enzyme immunoassay; assay type: cell-based, murine; settings: for Amount of NGF Produced: control = 100%; for enhancing activity for NGF production: result in words, no value given
Experimental: L-M cells (ATCC CCL-1.2) from murine fibroblasts were suspended in an M199 medium (manufactured by ICN) containing 0.5% bactopeptone (manufactured by Gibco) so as to have a concentration of 1.5×10^5 cells/ml. The suspension was put in a 96 well plate in an amount of 0.1 ml each well, and the cells were aseptically cultured. After culturing the cells for 3 days, the medium was removed therefrom, and exchanged with an M199 medium containing 0.5% bovine serum albumin (manufactured by Sigma). […] After the termination of the culture, the concentration of the nerve growth factor in the culture medium was assayed by an enzyme immunoassay method (NGF Emax Immuno Assay System, manufactured by Promega). The enhancement for NGF production was expressed, assuming that the NGF concentration in the cell culture medium with no addition of the sample is 100%. The experiment was carried out twice, and an average value was taken. As a result, the yellow pigment from Carthamus tinctorius enhanced NGF production of the L-M cells in a concentration dependent manner.

## O=C(/C=C/c1ccc(O)c(O)c1)O[C@@H]1CC(O)(C(=O)O)C[C@@H](OC(=O)/C=C/c2ccc(O)c(O)c2)C1O (stereo partly drawn) [3,5-Dicaffeoyl-quinic Acid, 3,5-dicaffeoyl-quinic acid]
[1]; 1 μM
  Amount of HGF Produced: 142%
[1]; 10 μM
  Amount of HGF Produced: 206%
[1]; 100 μM
  Amount of HGF Produced: 290%

## CC1(C)Oc2ccc3ccc(=O)oc3c2C(O)C1OC1OC(CO)C(O)C(O)C1O [10 (62.2), 3′-O-β-D-glucopyranoyl khellactone]
[2]; 2.0 mg/ml
  Amount of NGF Produced: 565.5%

## CC(C)=CCc1c(O[C@@H]2O[C@H](CO)[C@@H](O)[C@H](O)[C@H]2O)ccc2ccc(=O)oc12 [13-2 (8.7), 7-O-β-D-glucopyranosyloxy-8-prenylcoumarin]
[2]; 1.0 mg/ml
  Amount of NGF Produced: 792.1%

## COC(=O)/C=C/c1ccc(O)c(O)c1 [18-3 (10.6), caffeic acid methyl ester]
[2]; 0.25 mg/ml
  Amount of NGF Produced: 3039.6%

## COc1ccc(C(=O)O)c2c1CC(O)C(C)(C)O2 (stereo not drawn) [18-4 (10.9), 8-carboxyl-3-hydroxy-5-methoxyl-2-dimethylchroman]
[2]; 0.0375 mg/ml
  Amount of NGF Produced: 2510.4%

## CC(C)=CCc1cc2ccc(=O)oc2cc1O[C@@H]1O[C@H](CO)[C@@H](O)[C@H](O)[C@H]1O [19-, 20-5 (16.4), 7-β-D-glucopyranosyloxy-6-prenylcoumarin]
[2]; 1.0 mg/ml
  Amount of NGF Produced: 487.9%

## C/C=C(/C)C(=O)OC1c2c(ccc3ccc(=O)oc23)OC(C)(C)C1O[C@@H]1O[C@H](CO[C@@H]2O[C@H](CO)[C@@H](O)[C@H](O)[C@H]2O)[C@@H](O)[C@H](O)[C@H]1O (stereo partly drawn) [19-, 20-6 (18.8), 4′-O-angeloyl-3′-O-[6-O-(β-D-glucopyranosyl)-β-D-glucopyranosyl]-khellactone]
[2]; 1.0 mg/ml
  Amount of NGF Produced: 337.7%

## CCOC(=O)/C=C/c1ccc(O)c(O)c1 [28 (91.4), caffeic acid ethyl ester]
[2]; 0.05 mg/ml
  Amount of NGF Produced: 1058.1%

## CCOC(=O)/C=C/c1ccc(O)c(O)c1 [Caffeic acid ethyl ester, caffeic acid ethyl ester]
[2]; 62.5 μg/ml
  Amount of NGF Produced: 1279.1%

## COC(=O)/C=C/c1ccc(O)c(O)c1 [Caffeic acid methyl ester, caffeic acid methyl ester]
[2]; 62.5 μg/ml
  Amount of NGF Produced: 824.4%

## O=C(/C=C/c1ccc(O)c(O)c1)O[C@@H]1C[C@](O)(C(=O)O)C[C@@H](O)[C@H]1O [Chlorogenic Acid, chlorogenic acid]
[1]; 1 μM
  Amount of HGF Produced: 105%
[1]; 10 μM
  Amount of HGF Produced: 122%
[1]; 100 μM
  Amount of HGF Produced: 302%
[1]; 500 μM
  Amount of HGF Produced: 479%
[1]; 1000 μM
  Amount of HGF Produced: 624%
[1]; result in words, no value given
  enhancing activity for HGF production: enhancing activity for HGF production existed

## COc1cc(O)c(CC=C(C)C)c2c1C(=O)CC(c1ccc(O)cc1)O2 (stereo not drawn) [Isoxanthohumol, isoxanthohumol]
[2]; 50 μM
  Amount of NGF Produced: 110.7%
[2]; 100 μM
  Amount of NGF Produced: 121.4%
[2]; 200 μM
  Amount of NGF Produced: 198.0%

## O=C1C([C@@H]2O[C@H](CO)[C@@H](O)[C@H](O)[C@H]2O)=C(O)/C(=C(O)/C=C/c2ccc(O)cc2)C(=O)C1(O)[C@@H]1O[C@H](CO)[C@@H](O)[C@H](O)[C@H]1O (stereo partly drawn) [Safflomin A, safflomin A]
[2]; 2.5 mg/ml
  Amount of NGF Produced: 130.7%
[2]
  enhancing activity for NGF production: has the enhancing activity for NGF production

## CC(C)=CCC/C(C)=C/Cc1c(O)ccc(C(=O)/C=C/c2ccc(O)cc2)c1O [Xanthoangelol, xanthoangelol]
[2]; 25 μM
  Amount of NGF Produced: 126.1%
[2]; 50 μM
  Amount of NGF Produced: 202.6%
[2]; 100 μM
  Amount of NGF Produced: 265.7%

## COc1cc(O)c(CC=C(C)C)c(O)c1C(=O)/C=C/c1ccc(O)cc1 [Xanthohumol, xanthohumol]
[2]; 12.5 μM
  Amount of NGF Produced: 235.5%
[2]; 25 μM
  Amount of NGF Produced: 387.9%
[2]; 50 μM
  Amount of NGF Produced: 443.0%
[2]
  enhancing activity for NGF production: has the activity
